Like-named read-outs stand apart in the source and are kept apart here.
System: subjects with MDD at imminent risk for suicide
[1] = TEAE leading to study discontinuation, double-blind phase, safety analysis set
[2] = adverse events, follow up phase, safety (FU) analysis set
[3] = double-blind phase, safety analysis set
[4] = serious adverse events, follow up phase, safety (FU) analysis set
[5] = treatment-emergent serious adverse events, double-blind phase, safety analysis set

For `CN[C@]1(c2ccccc2Cl)CCCCC1=O` [Esketamine 84 mg], the Dizziness [1] was 1 (2.9%) no. subjects (%), the Dysgeusia [1] was 1 (2.9%) no. subjects (%) and the Dyspnea [1] was 1 (2.9%) no. subjects (%). For the same compound, the Gastrointestinal disorders [1] was 1 (2.9%) no. subjects (%), the Nausea [1] was 1 (2.9%) no. subjects (%) and the Nervous system disorders [1] was 2 (5.7%) no. subjects (%). The Panic attack [1] was 0 no. subjects (%), the Psychiatric disorders [1] was 2 (5.7%) no. subjects (%) and the “Respiratory, thoracic and mediastinal disorders” value [1] was 1 (2.9%) no. subjects (%). For the same compound, the “Total no. subjects with TEAE leading to study discontinuation” value [1] was 5 (14.3%) no. subjects (%), the Ventricular extrasystoles [1] was 1 (2.9%) no. subjects (%) and the Abdominal pain [2] was 1 (3.7%) no. subjects (%). For the same compound, the Abdominal tenderness [2] was 1 (3.7%) no. subjects (%), the Aphthous ulcer [2] was 0 no. subjects (%) and the Back pain [2] was 1 (3.7%) no. subjects (%). For the same compound, the Bronchitis [2] was 0 no. subjects (%), the Cellulitis [2] was 0 no. subjects (%) and the Cogwheel rigidity [2] was 1 (3.7%) no. subjects (%). The Contusion [2] was 1 (3.7%) no. subjects (%), the Depressed mood [2] was 0 no. subjects (%) and the Depression [2] was 1 (3.7%) no. subjects (%). The Diarrhea [2] was 1 (3.7%) no. subjects (%), the Dizziness [2] was 1 (3.7%) no. subjects (%) and the Drug hypersensitivity [2] was 0 no. subjects (%). The Dry mouth [2] was 2 (7.4%) no. subjects (%), the Dysgeusia [2] was 1 (3.7%) no. subjects (%) and the “Ear and labyrinth disorders” value [2] was 0 no. subjects (%). The Ear infection [2] was 1 (3.7%) no. subjects (%), the Epistaxis [2] was 1 (3.7%) no. subjects (%) and the Flank pain [2] was 1 (3.7%) no. subjects (%). For the same compound, the Folliculitis [2] was 0 no. subjects (%), the Gastrointestinal disorders [2] was 6 (22.2%) no. subjects (%) and the Headache [2] was 2 (7.4%) no. subjects (%). The Immune system disorders [2] was 0 no. subjects (%), the Infections and infestations [2] was 3 (11.1%) no. subjects (%) and the Influenza [2] was 0 no. subjects (%). The “Injury, poisoning and procedural complications” value [2] was 2 (7.4%) no. subjects (%), the Insomnia [2] was 3 (11.1%) no. subjects (%) and the Intentional self-injury [2] was 1 (3.7%) no. subjects (%). The Loss of consciousness [2] was 1 (3.7%) no. subjects (%), the “Meniere's disease” value [2] was 0 no. subjects (%) and the “Metabolism and nutrition disorders” value [2] was 0 no. subjects (%). For the same compound, the Migraine [2] was 1 (3.7%) no. subjects (%), the “Musculoskeletal and connective tissue disorders” value [2] was 2 (7.4%) no. subjects (%) and the Musculoskeletal chest pain [2] was 1 (3.7%) no. subjects (%). The Musculoskeletal pain [2] was 1 (3.7%) no. subjects (%), the Nasal congestion [2] was 1 (3.7%) no. subjects (%) and the Nasopharyngitis [2] was 1 (3.7%) no. subjects (%). The Nausea [2] was 0 no. subjects (%), the Neck pain [2] was 1 (3.7%) no. subjects (%) and the Nervous system disorders [2] was 6 (22.2%) no. subjects (%). For the same compound, the Night sweats [2] was 1 (3.7%) no. subjects (%), the Panic reaction [2] was 0 no. subjects (%) and the Pelvic pain [2] was 1 (3.7%) no. subjects (%). For the same compound, the Pharyngitis [2] was 2 (7.4%) no. subjects (%), the Polydipsia [2] was 0 no. subjects (%) and the Procedural pain [2] was 0 no. subjects (%). For the same compound, the Psychiatric disorders [2] was 5 (18.5%) no. subjects (%), the Rash [2] was 0 no. subjects (%) and the “Renal and urinary disorders” value [2] was 0 no. subjects (%). For the same compound, the Renal failure [2] was 0 no. subjects (%), the “Reproductive system and breast disorders” value [2] was 1 (3.7%) no. subjects (%) and the “Respiratory, thoracic and mediastinal disorders” value [2] was 2 (7.4%) no. subjects (%). For the same compound, the Restlessness [2] was 1 (3.7%) no. subjects (%), the Road traffic accident [2] was 1 (3.7%) no. subjects (%) and the Sedation [2] was 1 (3.7%) no. subjects (%). For the same compound, the Self-injurious ideation [2] was 0 no. subjects (%), the Sexual dysfunction [2] was 0 no. subjects (%) and the “Skin and subcutaneous tissue disorders” value [2] was 1 (3.7%) no. subjects (%). For the same compound, the Somnolence [2] was 0 no. subjects (%), the Suicidal ideation [2] was 1 (3.7%) no. subjects (%) and the Suicide attempt [2] was 0 no. subjects (%). For the same compound, the Tooth impacted [2] was 0 no. subjects (%), the Toothache [2] was 0 no. subjects (%) and the “Total no. subjects with adverse events” value [2] was 13 (48.1%) no. subjects (%). For the same compound, the Tremor [2] was 2 (7.4%) no. subjects (%), the “Upper respiratory tract infection” value [2] was 1 (3.7%) no. subjects (%) and the “Viral upper respiratory tract infection” value [2] was 0 no. subjects (%). For the same compound, the Vomiting [2] was 1 (3.7%) no. subjects (%), the Vulvovaginal mycotic infection [2] was 1 (3.7%) no. subjects (%) and the “1 or more serious TEAE” value [3] was 4 (11.4%) no. subjects (%). For the same compound, the “TEAE (total no. subjects with TEAE)” value [3] was 33 (94.3%) no. subjects (%), the “TEAE leading to death” value [3] was 0 no. subjects (%) and the “TEAE leading to drug withdrawn” value [3] was 5 (14.3%) no. subjects (%). The “Possibly related TEAE” value (double-blind phase, safety analysis set, relationship possible, probable, very likely) was 29 (82.9%) no. subjects (%), the Cellulitis [4] was 0 no. subjects (%) and the Infections and infestations [4] was 0 no. subjects (%). The Psychiatric disorders [4] was 1 (3.7%) no. subjects (%), the Suicidal ideation [4] was 1 (3.7%) no. subjects (%) and the Suicide attempt [4] was 0 no. subjects (%). The “Total no. subjects with a serious adverse event” value [4] was 1 (3.7%) no. subjects (%), the Agitation [5] was 1 (2.9%) no. subjects (%) and the Depressive symptom [5] was 1 (2.9%) no. subjects (%). For the same compound, the Psychiatric disorders [5] was 4 (11.4%) no. subjects (%) and the Suicidal ideation [5] was 2 (5.7%) no. subjects (%).

From patent publication US11707440B2 (priority 2017, dated 2023)
